The values that follow come from paper PMC12006171, “Marsupial cathelicidins: characterization, antimicrobial activity and evolution in this unique mammalian lineage” (Frontiers in Immunology, 2025).

Like-named read-outs stand apart in the source and are kept apart here. Where a SMILES comes first, the peptide text is derived from it.

The subject of experiment [1] is Escherichia coli ATCC 25922. Description: microbe, parasite or virus in culture. It is filed as cell-based. The procedure, abridged:
(§1)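 MIC read visually as the lowest peptide concentration with no growth versus negative control, after 20–24 h at 35°C. Peptides were tested in duplicate 64-0.125μg/mL (final) in MHB or cation-supplemented MH II B, some with 10% lysed horse blood; inoculum 5 x 10^5 CFU/mL.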

In experiment [2] the test system is Escherichia coli clinical isolate - animal. Description: microbe, parasite or virus in culture. The class given is cell-based. The procedure, abridged: as §1
The test system of experiment [3] is Pseudomonas aeruginosa ATCC 27853. Description: microbe, parasite or virus in culture. It is filed as cell-based. Conditions: ATCC 27853; read-out: MIC P. aeruginosa ATCC. The procedure, abridged: as §1
In experiment [4] the test system is Pseudomonas aeruginosa clinical isolate - animal. Description: microbe, parasite or virus in culture. It is filed as cell-based. Conditions: clinical isolate - animal; read-out: MIC P. aeruginosa. The procedure, abridged:
as §1

In experiment [5] the test system is Staphylococcus aureus ATCC 29213. Description: microbe, parasite or virus in culture. The class given is cell-based. The note with it: ATCC 29213; read-out: MIC S. aureus ATCC. The procedure, abridged:
as §1

In experiment [6] the test system is Staphylococcus aureus clinical isolate - animal. Description: microbe, parasite or virus in culture. The class given is cell-based. The note with it: clinical isolate - animal; read-out: MIC S. aureus. A digest of the protocol: as §1
Experiment [7] deals with Streptococcus agalactiae ATCC 12386. Description: microbe, parasite or virus in culture. It is filed as cell-based. The note with it: ATCC 12386; read-out: MIC S. agalactiae ATCC. A digest of the protocol:
(§2)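 Endpoint is visible-growth inhibition (MIC) after 35°C, 20–24 h incubation. Yeast medium was RPMI-1640 MOPS; bacterial medium was Mueller Hinton broth, with or without divalent cations and lysed horse blood. Final peptide range 64-0.125μg/mL.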

For experiment [8], the system named is Streptococcus agalactiae Clinical isolate - animal. Description: microbe, parasite or virus in culture. The class given is cell-based. The note with it: clinical isolate - animal; read-out: MIC S. agalactiae. The procedure, abridged:
as §2

In experiment [9] the test system is Streptococcus pneumoniae ATCC 49619. Description: microbe, parasite or virus in culture. The class given is cell-based. The note with it: ATCC 49619; read-out: MIC S. pneumoniae ATCC. The procedure, abridged:
as §2

Experiment [10] relates to six bacteria (S. aureus, E. coli, P. aeruginosa; ATCC and clinical isolate). It is filed as cell-based. Conditions: synthesized mature peptide. A digest of the protocol:
as §1

Experiment [11] relates to three fungi (Candida krusei, Candida parapsilosis, Candida albicans). Description: Antifungal screening, summary over the panel of fungi (broth microdilution). The class given is cell-based. Conditions: synthesized mature peptide. A digest of the protocol:
as §2
In general terms: In broth dilution the organism is exposed to a series of concentrations in liquid medium.

Experiment [12] deals with panel of 11 bacteria and three fungi. Description: Antimicrobial screening phases I and II, summary over all strains. It is filed as cell-based. Conditions: active = MIC ≤64µg/mL against the strains tested. The protocol:
Antimicrobial testing of 78 cathelicidin MPs was performed in two phases as outlined in Figure 1 . In phase I, 40 peptides (27 extant and 13 ancestral) were selected for testing based on rank (outlined above) and similarity to published marsupial cathelicidins with known antimicrobial activity ([33], [41]–[43]). These peptides were tested against nine bacteria (Staphylococcus aureus ATCC 29213 and clinical isolate, Escherichia coli ATCC 25922 and clinical isolate, Pseudomonas aeruginosa ATCC 27853 and clinical isolate, Streptococcus agalactiae ATCC 12386 and clinical isolate, Streptococcus pneumoniae ATCC 49619) and three fungi (Candida krusei ATCC 6258, Candida parapsilosis ATCC 22019, and Candida albicans clinical isolate). Details regarding these strains are available in Supplementary Table 4 . The antimicrobial activity of cathelicidins was determined as the minimum inhibitory concentration (MIC), which was the lowest concentration of cathelicidin that prevented visible bacterial or fungal growth, relative to the negative control. […]
Antimicrobial activity was determined using a broth microdilution susceptibility assay in 96 well polypropylene plates according to Clinical Laboratory Standards Institute guidelines M07-A and M26A as described previously ([33], [42], [43]). […]

Experiment [13] concerns six bacteria (S. aureus, E. coli, P. aeruginosa; ATCC and clinical isolate). More on the design: method as in 4 sources, ref Peel et al 2016 ||| ref Peel et al 2021 ||| ref Wang et al 2011 ||| ref Peel et al 2017. Conditions: mature peptide; Y/N summary from earlier study; ref Peel et al 2021; cited from earlier work.
The test system of experiment [14] is three fungi (Candida krusei, Candida parapsilosis, Candida albicans). More on the design: method as in 4 sources, ref Peel et al 2016 ||| ref Peel et al 2021 ||| ref Wang et al 2011 ||| ref Peel et al 2017. Conditions: mature peptide; Y/N summary from earlier study; ref Peel et al 2021; cited from earlier work.
Another experiment relates to Chlamydia. Conditions: in vitro; cited from earlier work. An excerpt: Many marsupial and monotreme cathelicidins were closely related to the classic cathelicidins found in eutherians. These cathelicidins sit within clade II in the phylogenetic tree, sister to eutherians but were not orthologous ( Figure 3 ). Classic marsupial cathelicidins were encoded in cluster A in the genome of all marsupials and monotremes studied, syntenic to the single cathelicidin gene/cluster in eutherians ( Figure 2 ). Many of these were antimicrobial and bactericidal, with MICs equal to or less than eutherian peptides such as cow BMAP-27 and -28 ([87]) and human LL-37, including again ...

For experiment [15], the system named is bacterial and fungal infections in chemotherapy patients. The note with it: human, in vivo; cited from earlier work.
For experiment [16] the following is noted: in vivo; cited from earlier work.

For `CC[C@H](C)[C@H](NC(=O)[C@H](CCCNC(=N)N)NC(=O)[C@H](CCCNC(=N)N)NC(=O)[C@@H]1CCCN1C(=O)[C@H](CC(N)=O)NC(=O)[C@H](CS)NC(=O)[C@H](CCCCN)NC(=O)[C@H](CCCNC(=N)N)NC(=O)[C@@H](NC(=O)[C@H](CC(C)C)NC(=O)[C@H](CC(C)C)NC(=O)[C@H](CS)NC(=O)[C@H](CCCNC(=N)N)NC(=O)[C@H](CCCCN)NC(=O)[C@H](CCCNC(=N)N)NC(=O)[C@H](CCCCN)NC(=O)[C@H](Cc1ccccc1)NC(=O)[C@H](CCCNC(=N)N)NC(=O)[C@H](CC(C)C)NC(=O)[C@@H]1CCCN1C(=O)[C@H](CCC(=O)O)NC(=O)[C@@H]1CCCN1)[C@@H](C)O)C(=O)N[C@H](C(=O)N[C@@H](Cc1ccccc1)C(=O)N[C@@H](CO)C(=O)N[C@@H](CC(C)C)C(=O)N[C@@H](CC(C)C)C(=O)N[C@@H](CCCCN)C(=O)NCC(=O)N[C@@H](CCCCN)C(=O)O)[C@@H](C)O` [TrvuCath2] (H-PEPLRFKRKRCLLTRKCNPRRITFSLLKGK-OH; N-terminus and C-terminus assumed), the “MBC E. coli ATCC” value was 17.5 (17.5)^17.5 µM in experiment [1] (ATCC 25922) and 64 (64)^64 µg/mL in [1] (value in brackets, 99.9% reduction in CFU/mL). Moreover, the “MIC E. coli ATCC” value was 17.5 (17.5)^17.5 µM in experiment [1] (ATCC 25922) and 64 (64)^64 µg/mL in experiment [1] (MHB without cations, 5 x 10^5 CFU/mL, 35°C 20–24 hours, duplicate). Also, the “MIC in the presence of cations E. coli ATCC” value in experiment [1] (ATCC 25922) was 17.5 (17.5)^17.5 µM; in experiment [1] (superscript value, cation-adjusted Mueller Hinton broth), 64 (64)^64 µg/mL. In addition, the “MBC E. coli” value is given as 17.5 (17.5)^17.5 µM in experiment [2] (clinical isolate - animal) and 64 (64)^64 µg/mL in experiment [2] (clinical isolate, value in brackets, 99.9% reduction in CFU/mL). The “MIC E. coli” value in experiment [2] (clinical isolate - animal) is reported as 17.5 (17.5)^17.5 µM; in experiment [2] (clinical isolate, MHB without cations, 5 x 10^5 CFU/mL, 35°C 20–24 hours, duplicate), 64 (64)^64 µg/mL. Also, the “MIC in the presence of cations E. coli” value in experiment [2] (clinical isolate - animal) was 17.5 (17.5)^17.5 µM; in experiment [2] (clinical isolate, superscript value, cation-adjusted Mueller Hinton broth), 64 (64)^64 µg/mL. Moreover, the MIC in experiment [3], in experiment [4], in experiment [5], in experiment [6], in [7] and in [8] was above 17.5 µM in each case. The MIC in experiment [9] is reported as above 17.5 µM. In addition, the “Antibacterial (MIC <64ug/mL)” value in [10] (broth microdilution screening, phase I or II, Y/N summary over the bacteria tested) is “Y (Antibacterial (MIC <64ug/mL))”. Also, the “Antifungal (MIC <64ug/mL)” value in experiment [11] (broth microdilution screening, phase I, Y/N summary over the fungi tested) is “N (Antifungal (MIC <64ug/mL))”. In addition, the “Antimicrobial activity in the assays” value in experiment [12] is on record as “displayed activity”.
With “KRGGIWKLIRPLGRGAGRILRHFHIDFCGNC [PhciCath5, koala cathelicidin, reference compound]”, the “Antibacterial (MIC <64ug/mL)” value in experiment [13] is reported as “Y (Peel et al 2021) (Antibacterial (MIC <64ug/mL))”. In [14], the “Antifungal (MIC <64ug/mL)” value is recorded as “Y (Peel et al 2021) (Antifungal (MIC <64ug/mL))”. The “Killing of Chlamydia” value in the experiment on Chlamydia is recorded as “killed Chlamydia in vitro”.
With “RFKRSLSDGVIDTSSLPPRIRDIYLQAKYDIISRILRN [MAP1, marsupial ancestral peptide 1, predicted ancestral cathelicidin of the NGP clade]”, in experiment [10] (antimicrobial screening Phase I, Y/N summary over bacteria tested, broth microdilution), the “Antibacterial (MIC <64ug/mL)” value is recorded as “N (Antibacterial (MIC <64ug/mL))”. In [11] (antimicrobial screening Phase I, Y/N summary over fungi tested, broth microdilution), the “Antifungal (MIC <64ug/mL)” value is given as “N (Antifungal (MIC <64ug/mL))”. For the same compound, in experiment [12], the “Antimicrobial activity in the assays” value was “none displayed antimicrobial activity”.
For iseganan, in experiment [15], the “Bacterial and fungal infections in oral mucositis patients” value is “significantly reducing bacterial and fungal infections”. Moreover, in [16], the “Clinical outcomes in ventilator-associated pneumonia” value was “no difference was observed between treated or placebo groups”.
